Converted amounts (≈) assume the structure as drawn.
Tests used:
[1] = target: α-amylase; conditions: ref 39 (Zheng et al.); cited from earlier work
[2] = target: α-glucosidase; conditions: ref 39 (Zheng et al.); cited from earlier work
[3] = tested on: porcine pancreatic α-amylase and amyloglucosidase (rice starch digestion); experiment: In vitro digestion of genistein–starch mixed system (RDS, SDS, RS contents); format: biochemical, porcine; Aspergillus niger
Method: A particular volume of mixed enzyme solution was prepared in which the specific activities of porcine pancreatic α-amylase and amyloglucosidase were 150 U/mL and 15 U/mL, respectively, and kept at 37 °C. […] This mixed system was added to 25 mL of mixed enzyme solution to receive incubation at 37 °C and 160 r/min in a shaking water bath. Aliquots from the reaction solution were removed at 0, 20, and 120 min, followed by being assayed using a glucose assay kit (Megazyme). Below is the calculation equation of the rapidly digestible starch (RDS), slowly digestible starch (SDS), and resistant starch (RS) contents:(1) RDS(%)=(G20−G0)×0.9/TS×100 (2) SDS(%)=(G120−G20)×0.9/TS×100 (3) RS(%)=TS−RDS−SDS/TS×100
In the above equations, G0 represents the content of free glucose within starch; G20 and G120 are the quantities of glucose generated by the mixed enzyme solution after incubation for 20 and 120 min, respectively; TS represents the total starch content in the sample, mg; and 0.9 is the glucose conversion coefficient.

[4] = target: T1, α-Amylase from porcine pancreas (Sus scrofa, UniProt P00690); experiment: Inhibition rate of α-amylase (glucose assay kit, 510 nm); format: biochemical
T1 construct: purchased Sigma-Aldrich (Shanghai, China); host or cells: porcine pancreas
T1 sequence (P00690 16-511): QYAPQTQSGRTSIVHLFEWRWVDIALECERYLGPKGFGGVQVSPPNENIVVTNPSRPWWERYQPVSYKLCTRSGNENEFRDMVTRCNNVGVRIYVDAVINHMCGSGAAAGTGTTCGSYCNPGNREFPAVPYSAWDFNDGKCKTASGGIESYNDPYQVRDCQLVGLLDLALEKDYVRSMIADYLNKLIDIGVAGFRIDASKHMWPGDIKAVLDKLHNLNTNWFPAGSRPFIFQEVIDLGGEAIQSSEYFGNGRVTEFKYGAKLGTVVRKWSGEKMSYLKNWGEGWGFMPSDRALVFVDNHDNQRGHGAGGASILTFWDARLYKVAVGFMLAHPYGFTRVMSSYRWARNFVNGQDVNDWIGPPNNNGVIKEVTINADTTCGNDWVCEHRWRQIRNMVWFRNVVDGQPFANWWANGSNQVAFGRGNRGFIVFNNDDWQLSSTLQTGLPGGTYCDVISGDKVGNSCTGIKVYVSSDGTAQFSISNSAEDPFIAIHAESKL
Method: For α-amylase, the method of Qin et al. [22] was used with slight modifications (the enzymatic reaction time was different). […] A 5 mL aliquot of the above solution was taken to undergo 10 min of incubation at 37 °C, following by the addition of 5 mL of starch solution (20 mg/mL) that was prepared and kept at 37 °C. Following 15 min of incubation at 37 °C, the reaction solution was removed, and a glucose assay kit was employed for assaying the glucose produced after starch hydrolysis through measuring the changes in the absorbance at 510 nm. […] IC50 was calculated using SPSS 25.0 (IBM) nonlinear regression fitting. (4) Inhibition ratio (%) = 1−ODsample−ODsample blank/ODenzyme solution−ODbuffer solution×100 where ODsample, ODsample blank, and ODenzyme solution represent the absorbance of the solution containing both the sample and the enzyme, the sample solution, and the enzyme solution, respectively. ODbuffer solution is the absorbance of the buffer solution.

[5] = target: T1, α-Amylase from porcine pancreas; experiment: Reversibility and enzyme inhibition kinetics, α-amylase (Lineweaver–Burk); format: biochemical
Method: The protocol of Dong et al. was followed with minor modifications (the substrate concentration was different). […] The assay mixture received 10 min of incubation at 37 °C. The mixture underwent 15 min of incubation after being added with starch solution (5 mL, 20 mg/mL), followed by the determination of the absorbance change. […] The mixture of the above solution with 2 mL of pNPG solution (25.0 mmol/L) underwent 15 min of incubation, followed by the measurement of its absorbance at 405 nm.
The method in the study of Jiang et al. was modified slightly in this study (the concentration of the inhibitor was different). […] Thereafter, the assay mixture added with 5 mL of 10, 20, 40, 50, and 100 mg/mL of starch solution underwent 15 min of incubation at 37 °C. The assay was performed using a glucose assay kit, together with the identification of the absorbance change at 510 nm.
The assay mix was incubated further for 15 min at 37 °C. The experimenters terminated the reaction by adding 6 mL of sodium carbonate solution (0.2 mol/L). The absorbance change of the solution was monitored colorimetrically at 405 nm. […] The equations below were adopted for calculating Km, KIC, and KIN, which, respectively, represented the Michaelis constant, competitive inhibition constant, and non-competitive inhibition constant, in mg/mL [28].
Lineweaver–Burk:(5) 1/V=Km/Vmax⋅1/[S]+1/Vmax

[6] = target: T1, α-Amylase from porcine pancreas; experiment: Fluorescence quenching, binding and thermodynamic analysis, α-amylase; conditions: for Kd: KD dissociation constant; for Kd / KQ static quenching constant / n binding sites / ΔG free energy change / ΔH enthalpy change / ΔS entropy change / KA apparent quenching rate constant: α-amylase
Method: For fluorescence spectroscopic studies, we followed the protocol in the study of Yu et al.. […] Fluorescence quenching parameters were calculated using the following equations:(8) Fa=Fm⋅e^(Aex+Aem)/2 where Fm denotes the measured fluorescence data; Fa represents the adjusted fluorescence data; and Aex and Aem denote the absorbance at the excitation and emission wavelengths, respectively.
Stern–Volmer dynamic impact quenching equation:(9) F0/F=1+KAτ0[Q]
Binding and thermodynamic analyses were used for elucidating the mechanisms of enzyme inhibition, including the inhibition of fluorophores by quenchers. […] (13) lg(F0−F/F)=lgKC+nlg[Q] where F0, F, and [Q] are identical to those in Equation (9). KC is the binding constant (L/mol), and n denotes the average number of binding sites. (14) lnKQ2/KQ1=ΔH/R(1/T1−1/T2) (15) ΔG=−RTlnK=ΔH−TΔS

[7] = addition of genistein (0.4 mg/mL, 10%) vs starch alone
[8] = genistein 0.4 mg/mL (10.0 mg per 100 mg rice starch), 37 °C

## COc1cc(/C=C/C(=O)O)ccc1O [ferulic acid]
[1]
  IC50 α-amylase: 622 µg/mL (≈ 3.2 mM)
[2]
  IC50 α-glucosidase: 866 µg/mL (≈ 4.46 mM)

## O=c1c(-c2ccc(O)cc2)coc2cc(O)cc(O)c12 [genistein, Genistein]
[3]; [7]
  increase of RS content: 7.18%
  increase of SDS content: 30.34%
  reduction of RDS content in starch: 37.52%
[3]; [8]
  RDS content of the mixed system: 20.63%
  RS content of the mixed system: 9.14%
  SDS content of the mixed system: 70.23%
[4]
  IC50: 2550 µM
[5]; genistein 0, 1, 2 mg/mL
  type of inhibition of α-amylase: reversible and non-competitive
[5]; read-out: KIN (non-competitive inhibition constant), α-amylase (converted)
  Ki: 50500 µM
[6]; 25, 31, 37 °C
  type of fluorescence quenching of α-amylase: static quenching
[6]; 25 °C
  Kd: 760 µM
  KQ static quenching constant: 540 L/mol
  n binding sites: 1.19
  ΔG free energy change: -3.415 kcal/mol
  ΔH enthalpy change: -0.11 kcal/mol
  ΔS entropy change: 50.65 J·mol^−1·K^−1
[6]; 31 °C
  Kd: 170 µM
  KA apparent quenching rate constant: 5.32e+11 M⁻¹ s⁻¹
  KQ static quenching constant: 530 L/mol
  n binding sites: 0.97
  ΔG free energy change: -3.717 kcal/mol
  ΔH enthalpy change: -1.44 kcal/mol
  ΔS entropy change: 31.97 J·mol^−1·K^−1
[6]; 37 °C
  Kd: 110 µM
  KA apparent quenching rate constant: 4.84e+11 M⁻¹ s⁻¹
  KQ static quenching constant: 480 L/mol
  n binding sites: 0.77
  ΔG free energy change: -3.81 kcal/mol
  ΔH enthalpy change: -0.504 kcal/mol
  ΔS entropy change: 44.59 J·mol^−1·K^−1
